This is an account of results in publication PMC10794345, “Analysis of vascular disruption in zebrafish embryos as an endpoint to predict developmental toxicity” (Archives of Toxicology, 2023).

The test system of series [1] is early life stage zebrafish. The note with it: ref Tal et al. [2014]; read-out: EC50 for decreased ISV length; cited from earlier work.
The subject of series [2] is zebrafish embryos (wild-type strain OBI/WIK). Nature of the series: ISV inhibition (angiogenesis) by video subtraction in wildtype zebrafish embryos. The class given is in vivo, zebrafish (D. rerio). The note with it: for IC50: Danio rerio, ± 95% confidence intervals, read-out: IC50 of ISV inhibition. As for the experimental part:
A wild-type adult zebrafish strain (D. rerio, strain OBI/WIK, generation F3), originating from an in-house cross of zebrafish strains UFZ-OBI and WIK, was used for all experiments. The Tg(kdr:EGFP) strain was kindly provided by the University of Jena. Fish were fed twice daily with dry food (SDS-400, Special Diets Services, Essex England) and once daily with Artemia sp. […] Spawning trays were inserted 4–6 h before the end of the light cycle. The following day, spawning was initiated by the onset of light and eggs were collected within 1 h. Exposure in all experiment was ceased at 96 hpf.
(§1) Exposure was conducted in rectangular 96-well microplates (Clear Polystyrene, flat bottom, Uniplate, Whatman, GE Healthcare) covered by a lid with a test volume of 400 µL of exposure media. For each replicate one embryo per well and 16 wells per concentration were assessed. Experiments were performed with at least two replicates on independent days and breeding.
To determine the number of ISVs in the trunk region, high-resolution images of 96 hpf-old zebrafish embryos were recorded using a Leica DM6B-Z microscope (Leica, Wetzlar, Germany) attached to the VAST imaging system, and a camera (Leica DFC9000 sCMOS, objective: HC APO L U-V-I 20x/0.50 WATER UV). A series of 20 images with a frame rate of 20 images per second and a 2 × 2 pixel binning was recorded in autofocus mode for each embryo.
A series of MATLAB scripts (Supplement File ‘Workflow 3.m’ and ‘Workflow 4.m’) was used to convert the image series into a video and to visualize the blood vessel by applying a video subtraction approach (Figure SI1). Briefly, each video frame was subtracted from the average image of the whole image sequence and converted to a binary image by applying a Gaussian blur (σ = 5) and a threshold of 0.025 to obtain optimal contrast in binary images. Subsequently, the sum of all binary images was calculated. Due to movement of the blood cells the subtraction approach removed all parts from the image which were not moving resulting in an image of the blood vessels. This binary image of the blood vessel network in the zebrafish embryo tail was then processed with the FishInspector annotation software (version 1.70). […] The number of ISVs was obtained by application of a KNIME workflow to FishInspector annotation files. Subsequently concentration–response analysis was conducted using a KNIME workflow. The coefficient of variation (CV) of controls was calculated for both the subtraction and the fluorescence-based method by dividing the standard deviation of individual embryos with the control mean: CVControl=SD/Mean.
The assessment of lethality and morphological features was based on the percentage of embryos affected. Therefore, morphological endpoints were dichotomized, i.e. feature metrics were converted to the percentage of embryos deviating from controls. An embryo was considered to deviate when it was outside 1.5-fold of the standard deviation range of the mean of the control group. The control mean was determined by pooling control embryos across all experiments (n = 160) (available at git.ufz.de). For heart rate and angiogenesis (number of ISVs) the analysis was based on normalized values, i.e. for each experiment the values of the treatment were divided by the control value. The experiments were designed to calculate effect concentrations based on modelled curve fits. Different concentrations were used in at least two independent replicates, with means of each replicate based on the exposure of 16 different embryos per concentrations. Effect concentration were only modeled when three conditions were met. […] (2) The Akaike information criterion (AIC) for the log-logistic model was lower than the AIC for a linear model with slope 0 (lower p values for the letter would indicate that there is no trend in the data).

The test system is the same in series [3]. Nature of the series: Lethality of zebrafish embryos at 96 hpf. The class given is in vivo, zebrafish (D. rerio). The note with it: embryos exposed from 24 hpf, compared to exposure from 3 hpf. Here is the method: as §1, with “Fertilized and normally developed embryos were selected according to Kimmel et al. ([1995]) with a dissection microscope (Olympus SZx7-ILLT) at 1 hpf. Depending on experiment, exposure was started within 2–3 h post-fertilization (16–128 cell stages) or at 24 hpf. Exposure” for “Exposure”
(§2) Concentration–response curves were fitted for lethality, heart rate, morphological features as previously described (Teixidó et al. [2019], [2022]). The assessment of lethality and morphological features was based on the percentage of embryos affected. Therefore, morphological endpoints were dichotomized, i.e. feature metrics were converted to the percentage of embryos deviating from controls. An embryo was considered to deviate when it was outside 1.5-fold of the standard deviation range of the mean of the control group. The control mean was determined by pooling control embryos across all experiments (n = 160) (available at git.ufz.de). For heart rate and angiogenesis (number of ISVs) the analysis was based on normalized values, i.e. for each experiment the values of the treatment were divided by the control value. The experiments were designed to calculate effect concentrations based on modelled curve fits. Different concentrations were used in at least two independent replicates, with means of each replicate based on the exposure of 16 different embryos per concentrations. Effect concentration were only modeled when three conditions were met. (1) The Tukey trend test based on the R package "tukeytrend" (Schaarschmidt et al. [2022]) was deriving a maximum p-value of 0.05. (2) The Akaike information criterion (AIC) for the log-logistic model was lower than the AIC for a linear model with slope 0 (lower p values for the letter would indicate that there is no trend in the data). (3) We calculated effect concentrations only if at least 30% of embryos for that endpoint were affected in at least one exposure concentration of (for normalized data) a reduction or increase by 30% was observed.

Series [4] is described as follows: Lethality of zebrafish embryos at 96 hpf. The note with it: OBI/WIK wild-type, zebrafish, in vivo, other: immersion of embryos in exposure media, 3–96 hpf exposure; ± 95% confidence intervals. Format: in vivo, zebrafish (D. rerio). As for the experimental part:
as §1, with “Fertilized and normally developed embryos were selected according to Kimmel et al. ([1995]) with a dissection microscope (Olympus SZx7-ILLT) at 1 hpf. Depending on experiment, exposure was started within 2–3 h post-fertilization (16–128 cell stages) or at 24 hpf. Exposure” for “Exposure”
as §2

In series [5] the test system is zebrafish embryos (wild-type strain OBI/WIK). Nature of the series: Morphological features and heart rate by automated imaging (VAST/FishInspector) at 96 hpf. Format: in vivo, zebrafish (D. rerio). The note with it: 96 hpf; listed as VPA. As for the experimental part: Automated imaging of zebrafish developmental phenotypes was conducted with the VAST BioImager (Union Biometrica, Gees, Belgium (Pardo-Martin et al. [2010]; Pulak [2016])) equipped with a large particle sampler (LP sampler, Union Biometrica). Lateral and dorsoventral images were obtained at 10 µm resolution at 96 hpf. Prior to imaging, all embryos were anesthetized by adding 20 µl tricaine solution ([…] tricaine, TRIS 26 mM, pH 7.5 ± 0.1) to each well of the microplate. Images were processed with an amended version (1.70, available via https://codebase.helmholtz.cloud/ufz/tb3-cite/biotox/FishInspector) of the FishInspector imaging software (Teixidó et al. [2019]). The FishInspector software allows to automatically annotate morphological features including body contour, eye, lower mouth tip, pericard, otoliths, notochord, swimbladder, and yolk and to calculate diverse metrics such as feature length, size, curvature indices, or angle between feature-connecting lines. In contrast to the previously published version, FishInspector 1.70 detects morphological features based on a deep learning approach using the Matlab Neural Network Toolbox and Matlab Image Processing Toolbox (Mathworks, Natick, […]). In addition, metric calculation was included into the software, and meta information such as test compound, exposure window or test concentration was associated to each image using a microplate layout file. To facilitate training of the models, two additional programs were generated in Matlab including FishTrainer 0.9 (for training of semantic segmentation models of structural features) and FishClassificator 0.9 (for training of position classes to be used in automated flipping of images) available via same repository as FishInspector software. For image training, image size was adjusted to 450 × 300 pixel to reduce computing time. This resolution was sufficient to detect the selected features (data not shown). For training of the deep learning models, approximately 3000 previously annotated images (Teixidó et al. [2022]) were used. The automated annotations were corrected by the user in the event that they were not adequately detecting visible structures. User-bias was avoided by a blinded assessment of images.
FishInspector provided a JSON file corresponding to each image file containing the coordinates of all features and the applied smoothing factor. All images and videos used for this publication can be found at the BioImage Archive S-BIAD954 (https://www.ebi.ac.uk/biostudies/bioimages/studies/S-BIAD954). For each image, a csv file was generated containing calculated metrics. The software automatically provides a summary table containing metrics r of individual embryos. […] The analyzed file includes endpoint names based on the FishInspector software. […]

“Also recorded” adds a separate entry of the source. Where two headings read alike, the source gives them in different places.

As usually defined, the EC50 is the concentration that produces a half-maximal response. For orientation: IC50 means the concentration needed to halve the response being measured. In general, LC50 refers to the concentration lethal to half of the exposed cells or organisms. Low values mean a more lethal substance, high ones a less lethal substance.

Consider `Clc1ccc(Nc2nnc(Cc3ccncc3)c3ccccc23)cc1` [PTK787], for which, in series [1], the 50% effective concentration (EC50) was 170 nM. For the same compound, the IC50 in series [2] (3–96 hpf exposure) came out at 90 ± 40 nM; in series [2] (24–96 hpf exposure), 140 ± 30 nM. For the same compound, the “Mortality (in words)” value in series [3] was “no”. Further, the LC50 in series [4] was 680 ± 510 nM.

For the compound `CCCC(CCC)C(=O)O` [Valproic acid], the “Morphological malformations (in words)” value in series [5] was “craniofacial malformations were observed; also recorded: changes in head and jaw structures”. In addition, the “Effect on ISV formation (in words)” value in series [2] (tested concentration range up to 800 µM, negative control, listed as VPA) was “No effect; also recorded: no inhibition of ISVs formation was observed”.
